In patent US5763245A, “Method of controlling insects” (priority 1996, dated 1998):

Tests used:
boll weevil larvae [1] = test: Boll weevil larvae bioassay (diet incorporation); format: in vivo; conditions: for lethal effects against boll weevil: incorporated at up to 200 &M in the standard diet
Experimental: Assays for activity against boll weevil larvae are carried out by incorporating the test sample into a agar liquid diet similar to that for southern corn rootworm [Marrone et al., 1985]. The test sample is substituted for the 20% water component. Neonate larvae are allowed to feed on the diet and mortality and growth stunting are evaluated.
Protein concentrations were determined spectrophotometrically with BCA protein reagent [Smith et al., 1985].

[2] = tested on: fall armyworn (FAW) neonate larvae; test: B.t. / cholesterol oxidase synergy diet assay; format: in vivo; conditions: 7-day; each protein 15 ppm, alone or in tandem
Experimental: (§1) Feeding assays were conducted for 7-10 days.

[3] = tested on: black cutworm (BCW) larvae; test: B.t. / cholesterol oxidase synergy diet assay; format: in vivo, Agrotis ipsilon; conditions: each protein 15 ppm, alone or in tandem
H. zea neonate larvae = test: B.t. / cholesterol oxidase synergy diet assay; format: in vivo, Helicoverpa zea; parameters: surv.: unit not given here; conditions: CO 15 ppm, alone or in tandem; for Mean Larval wgt / Stunting Observed: 7-day
Experimental: as §1

[4] = tested on: black cutworm (BCW) neonate; test: Detached leaf assay with transgenic corn; format: in vivo, Agrotis ipsilon; conditions: corn leaf tissue, 3d
From the text: A detached leaf assay was designed to evaluate biological activity of transgenic corn expressing either CryIA(b) alone or in combination with cholesterol oxidase (CO) against Agrotis ipsilon, black cutworm (BCW). In artificial diet assays, a synergistic response was observed when CO and CryIA(b) were combined.
Treatments included transgenic corn expressing either CryIA(b) alone or in combination with CO. Plant tissue from the F1 generation of two CO events crossed to a CryIA(b) event was used in this bioassay. The CO events included collosian and flushed. The CryIA(b) event was ezra. For each of the CO events by CryIA(b) cross, the CO isopopulations provide the tissue for each treatment.
CO expression was estimated to be 15 and 14 ppm for collosian and flushed, respectively. CryIA(b) expression was not quantitated. Historically, this event has reliably and consistently expressed the CryIA(b) protein at around 10 ppm.
Tissue was collected at the v6 stage from the youngest leaf of six plants for each treatment event combination. Four leaf samples (1.5×2.0 cm leaf pieces) were taken from each plant, where each piece was placed singly in a well of a 24-well microtiter plate. One neonate larva was added to each well and sealed with a mylar lidding. The assay was incubated for 3 days at 27° C. Larval weight (mg) and mortality was recorded. […] Although larval weight was less in the CryIA(b)+CO treatment for both events as compared to CryIA(b) alone (ca. 12%), the difference between the treatment means within an event was not significant.

[5] = tested on: Tobacco budworm (TBW) neonate larvae; test: B.t. / cholesterol oxidase synergy diet assay; format: in vivo; conditions: 7-day; for surv.: n 96
Experimental: as §1

[6] = tested on: beet armyworm (BAW) neonate larvae; test: B.t. / cholesterol oxidase synergy diet assay; format: in vivo; conditions: each protein 15 ppm, alone or in tandem; for Mean Larval wgt / Stunting Observed: 7-day
Experimental: as §1

tobacco budworm larvae = test: Cottonseed diet (Pharmamedia flour) test with tobacco budworm; format: in vivo; conditions: 100 ppm in cottonseed diet (Pharmamedia flour)
Experimental: The Southern corn rootworm diet used in the assay described above was the control. Two treatment diets were made by mixing 30 g of one of two types of cottonseed flour into 170 mL of a 1.6% agar solution at 50% C, containing 0.13% propionic acid, 0.014% phosphoric acid, and 30 mg each of streptomycin sulfate and chlortetracycline. Before mixing, 10% KOH was used to adjust the pH to 6.2. One test diet utilized raw cottonseed flour (Sigma) as the nutrient source; the other utilized Pharmamedia™ (Traders Protein), a flour made up of cottonseed embryos. The diets were incubated in a water bath at 40% C. Dilutions of the Sigma Streptomyces 3-hydroxysteroid oxidase (cholesterol oxidase) were incorporated into the diets as described above. Boll weevil larvae were allowed to feed and mortality rates were determined after six days.
In addition, tobacco budworm larvae are 68% stunted when exposed to 3-hydroxysteroid oxidase (100 ppm) in cottonseed diet (made with Pharmamedia™ flour).

boll weevil larvae [7] = test: Homogenized cotton leaf tissue assay; format: in vivo; conditions: six days, initial 24
Experimental: In order to test 3-hydroxysteroid oxidase against boll weevil larvae in a host tissue diet environment, a study was conducted in which cotton leaf tissue was the only nutritional component of an agar-based diet. Two cotton leaves (each approx. 5 inches wide ) with stems were homogenized at 50% C into 170 mL of a 1.6% agar solution containing 0.13% propionic acid, 0.014% phosphoric acid, and 30 mg each of streptomycin sulfate and chlortetracycline. Before addition of the leaves, 10% KOH was used to adjust the pH of the agar solution to 6.2. The leaf "diet" was allowed to cool to 40% C. Dilutions of cholesterol oxidase and a water control were incorporated into the leaf "diet", poured into insect diet trays and allowed to cool. Boll weevil eggs were added to the diet wells. The assay was evaluated six days later. […] This illustrates that the enzyme is insecticidal in the presence of intact cotton tissue and cells.

[8] = tested on: boll weevil or lepidopteran larvae; test: Feeding of diet incubated with enzyme and then boiled; format: in vivo; conditions: diet incubated one week with the enzyme, then boiled
From the text: While not being bound by this theory, it is believed that the 3-hydroxysteroid oxidase enzyme kills or stunts boll weevil larvae and stunts the growth of lepidopteran larvae by some action in the gut after ingestion.

[9] = tested on: midguts of boll weevil larvae; test: Midgut morphology of larvae feeding on enzyme diets; format: in vivo
From the text: The enzymatic action in the gut is believed to be oxidation of the 3-hydroxysteroid(s) of the cell membranes in the lining of the gut. The effects of ingested 3-hydroxysteroid oxidase on the midguts of boll weevil larvae have been studied. The midguts of boll weevil larvae (neonate and second instar at initiation of assay) feeding on diets containing sublethal doses of 3-hydroxysteroid oxidase were dissected out. Representative midguts were immediately placed in fixative and analyzed microscopically for morphological changes. […] There was a good correlation of the morphological changes with the observed mortality over the 3-hydroxysteroid oxidase concentration range in the diet. Parallel midguts were dissected and homogenized and found to contain active 3-hydroxysteroid oxidase in enzymatic assays.

[10] = CO 15 ppm, CryIA(c) 0.1 ppm, alone or in tandem
[11] = CryIA(c) 0.05 ppm, alone or with CO 15 ppm

| Molecule | lethal effects against boll weevil (boll weevil larvae [1]) | Mean Larval wgt [2] | Obs. Mort. [2] | Stunting Observed [2] | surv. [2] | Obs. Mort. ([3]; 3rd instar 6 day) | surv. ([3]; 3rd instar 6 day) | Mean Larval wgt ([3]; 3rd instar, 6-day assay) | Stunting Observed ([3]; 3rd instar, 6-day assay) | Obs. Mort. ([3]; Neonate 6 day) | surv. ([3]; Neonate 6 day) | Obs. Mort. ([3]; Neonate 7 day) | surv. ([3]; Neonate 7 day) | Mean Larval wgt ([3]; Neonate, 7-day assay) | Stunting Observed ([3]; Neonate, 7-day assay) | Mean Larval wgt (H. zea neonate larvae; CryIA(b) 10 ppm) | Stunting Observed (H. zea neonate larvae; CryIA(b) 10 ppm) | Obs. Mort. (H. zea neonate larvae; 7 day, CryIA(b) 10 ppm) | surv. (H. zea neonate larvae; 7 day, CryIA(b) 10 ppm) | Obs. Mort. (H. zea neonate larvae; 8 day, CryIA(b) 10 ppm) | further results |
| --- | --- | --- | --- | --- | --- | --- | --- | --- | --- | --- | --- | --- | --- | --- | --- | --- | --- | --- | --- | --- | --- |
| CC(C)CCC[C@@H](C)[C@H]1CC[C@H]2[C@@H]3CCC4=CC(=O)CC[C@]4(C)[C@H]3CC[C@]12C [cholestenone, reference compound] | Nor do cholestenone or hydrogen peroxide, the products of enzymatic action on cholesterol, exhibit any lethal effects |  |  |  |  |  |  |  |  |  |  |  |  |  |  |  |  |  |  |  |  |
| OO [hydrogen peroxide, reference compound] | Nor do cholestenone or hydrogen peroxide, the products of enzymatic action on cholesterol, exhibit any lethal effects |  |  |  |  |  |  |  |  |  |  |  |  |  |  |  |  |  |  |  |  |
| CryIA(b): Bacillus thuringiensis crystal protein, purified; in Table 24 expressed in transgenic corn event ezra |  | 0.25 ± 0.05 mg | 10% | 99% | 80 | 0% | 32 | 216 mg | 15% | 0% | 91 | 2% | 76 | 13.64 mg | 7% | 0.96 mg | 97% | 4.3% | 90 | 10% | surv. (H. zea neonate larvae; 8 day, CryIA(b) 10 ppm): 69; Mean Larval Weight ([4]; event collosian x ezra): 1.11 mg; Mort. ([4]; event collosian x ezra): 7%; Mean Larval Weight ([4]; event flushed x ezra): 1.27 mg; Mort. ([4]; event flushed x ezra): 8% |
| CryIA(c): Bacillus thuringiensis crystal protein, purified |  |  |  |  |  |  |  |  |  |  |  |  |  |  |  |  |  |  |  |  | Obs. Mort. [5, 10]: 38%; surv. [5, 10]: 56; Obs. Mort. [5, 11]: 23%; surv. [5, 11]: 70; Mean Larval wgt [6]: 6.15 ± 0.90 mg; Stunting Observed [6]: 88%; Obs. Mort. ([6]; 7 day): 2%; surv. ([6]; 7 day): 94; Obs. Mort. ([6]; 8 day): 3%; surv. ([6]; 8 day): 70; Obs. Mort. (H. zea neonate larvae; 7 day, CryIA(c) 15 ppm): 11%; surv. (H. zea neonate larvae; 7 day, CryIA(c) 15 ppm): 82; Obs. Mort. (H. zea neonate larvae; 10 day, CryIA(c) 15 ppm): 11%; surv. (H. zea neonate larvae; 10 day, CryIA(c) 15 ppm): 82 |
| catalase [reference compound] |  |  |  |  |  |  |  |  |  |  |  |  |  |  |  |  |  |  |  |  | effect of added catalase on lethal effects of 3-hydroxysteroid oxidase on boll weevil (boll weevil larvae [1]; catalase added to 3-hydroxysteroid oxidase in the bioassay): does not block the lethal effects |
| cholesterol oxidase |  | 42.97 ± 1.77 mg | 2% | 0% | 90 | 0% | 32 | 197 mg | 22% | 2% | 81 | 1% | 61 | 9.93 mg | 32% | 24.95 mg | 27% | 0% | 95 | 1% | stunted (tobacco budworm larvae): 68%; Bollweevils Survivors (boll weevil larvae [7]; 10 ppm in cotton leaf diet): 20; Bollweevils Survivors (boll weevil larvae [7]; 50 ppm in cotton leaf diet): 12; Bollweevils Survivors (boll weevil larvae [7]; 100 ppm in cotton leaf diet): 0; lethal or stunting effects [8]: no lethal or stunting effects; midgut morphological changes ([9]; higher doses): complete lysis of the cells; midgut morphological changes ([9]; larvae ingesting low doses): Disruption of the epithelial cell layer; Obs. Mort. [5, 10]: 1%; surv. [5, 10]: 90; Mean Larval wgt [6]: 27.51 ± 5.52 mg; Stunting Observed [6]: 47%; Obs. Mort. ([6]; 7 day): 1%; surv. ([6]; 7 day): 94; Obs. Mort. ([6]; 8 day): 3%; surv. ([6]; 8 day): 77; Obs. Mort. (H. zea neonate larvae; 7 day, CryIA(c) 15 ppm): 0%; surv. (H. zea neonate larvae; 7 day, CryIA(c) 15 ppm): 96; surv. (H. zea neonate larvae; 8 day, CryIA(b) 10 ppm): 87; Obs. Mort. (H. zea neonate larvae; 10 day, CryIA(c) 15 ppm): 0%; surv. (H. zea neonate larvae; 10 day, CryIA(c) 15 ppm): 96 |
